Results as given in ChEMBL document CHEMBL3259764, “Pim kinase inhibitory and antiproliferative activity of a novel series of meridianin C derivatives” (Bioorg Med Chem Lett, 2014).
pEC50, pIC50: −log10 of the molar value.

Tests used:
[1] = target: Serine/threonine-protein kinase pim-1 (Homo sapiens, UniProt P11309); test: Inhibition of PIM1 kinase (unknown origin) using 5-FAM-labeled BAD peptide as substrate after 90 mins by fluorescence polarization assay
[2] = target: Serine/threonine-protein kinase pim-2 (Homo sapiens, UniProt Q9P1W9); test: Inhibition of PIM2 kinase (unknown origin) using 5-FAM-labeled BAD peptide as substrate after 90 mins by fluorescence polarization assay
Chain of Serine/threonine-protein kinase pim-2 (Q9P1W9 whole entry): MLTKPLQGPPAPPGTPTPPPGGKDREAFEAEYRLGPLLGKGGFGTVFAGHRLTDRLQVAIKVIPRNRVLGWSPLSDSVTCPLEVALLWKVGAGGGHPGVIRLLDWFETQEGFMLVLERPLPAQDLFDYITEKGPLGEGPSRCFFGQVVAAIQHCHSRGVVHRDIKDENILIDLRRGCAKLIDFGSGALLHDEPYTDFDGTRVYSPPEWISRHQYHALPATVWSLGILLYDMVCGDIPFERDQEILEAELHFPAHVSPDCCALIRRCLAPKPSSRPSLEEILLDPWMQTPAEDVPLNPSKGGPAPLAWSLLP

[3] = target: Serine/threonine-protein kinase pim-3 (Homo sapiens, UniProt Q86V86); test: Inhibition of PIM3 kinase (unknown origin) using 5-FAM-labeled BAD peptide as substrate after 90 mins by fluorescence polarization assay
[4] = Antiproliferative activity against human MV411 cells assessed as cell viability after 24 hrs by MTS assay; assay type: functional, cell-based; conditions: MV4-11, 24 h
K562 = test: Antiproliferative activity against human K562 cells assessed as cell viability after 24 hrs by MTS assay; assay type: functional, cell-based; conditions: K562, 24 h
[5] = Antiproliferative activity against human Jurkat E6-1 cells assessed as cell viability after 24 hrs by MTS assay; assay type: functional, cell-based
[6] = target: CDK2/Cyclin A2 (Homo sapiens) (UniProt P24941+P20248); test: Inhibition of CDK2/cyclinA kinase (unknown origin) at 10 uM; assay type: protein-complex assay
Caco-2 = test: Permeability across human Caco2 cells; assay type: ADME, cell-based

Chain of Serine/threonine-protein kinase pim-1 (P11309 whole entry): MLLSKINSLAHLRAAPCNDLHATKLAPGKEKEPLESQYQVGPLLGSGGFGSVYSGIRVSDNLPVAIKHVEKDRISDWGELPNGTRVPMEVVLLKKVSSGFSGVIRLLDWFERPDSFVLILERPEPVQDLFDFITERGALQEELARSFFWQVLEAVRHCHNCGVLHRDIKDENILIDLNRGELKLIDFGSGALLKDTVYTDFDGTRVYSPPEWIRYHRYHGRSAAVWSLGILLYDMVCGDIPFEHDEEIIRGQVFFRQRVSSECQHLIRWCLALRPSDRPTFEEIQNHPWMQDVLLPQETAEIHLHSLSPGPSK

Row | SMILES | pIC50 [1] | pIC50 [2] | pIC50 [3] | pEC50 (K562) | inhibition [6] [%] | permeability (Caco-2) | pEC50 [4] | pEC50 [5]
1 | CN(C)CCCNc1cncc(-c2ccc3[nH]cc(-c4ccnc(N)n4)c3c2)n1 | 7.74 | 6.20 | 7.50 | – | – | – | – | –
2 | CCN(CC)CCCNc1cncc(-c2ccc3[nH]cc(-c4ccnc(N)n4)c3c2)n1 | 7.76 | 6.04 | 7.52 | – | – | – | – | –
3 | Nc1nccc(-c2c[nH]c3ccc(Br)cc23)n1 [MERIDIANIN C] | 5.98 | – | – | – | – | – | – | –
4 | CCN(CC)CCCOc1cncc(-c2ccc3[nH]cc(-c4ccnc(N)n4)c3c2)n1 | 7.46 | 6.18 | 7.25 | 4.86 | – | – | 5.82 | 4.96
5 | CN(C)CCN(C)c1cncc(-c2ccc3[nH]cc(-c4ccnc(N)n4)c3c2)n1 | 8.10 | 6.74 | 8.11 | – | – | – | – | –
6 | CN(C)CCCOc1cncc(-c2ccc3[nH]cc(-c4ccnc(N)n4)c3c2)n1 | 7.73 | 6.27 | 7.69 | – | – | – | – | –
7 | CN(C)CCNc1cncc(-c2ccc3[nH]cc(-c4ccnc(N)n4)c3c2)n1 | 8.47 | 6.96 | 8.19 | – | – | permeable | – | –
8 | CC(=O)c1c[nH]c2ccc(-c3cncc(NCCN(C)C)n3)cc12 | 6.57 | – | – | – | – | – | – | –
9 | CCN(CC)CCNc1cncc(-c2ccc3[nH]cc(-c4ccnc(N)n4)c3c2)n1 | 8.55 | 6.51 | 8.00 | – | – | – | – | –

Further lines, with some results ahead:

Row | pIC50 [1] | pIC50 [2] | pIC50 [3] | pEC50 (K562) | inhibition [6] [%] | permeability (Caco-2) | SMILES | pEC50 [4] | pEC50 [5]
10 | 5.95 | – | – | – | – | – | CN(C)/C=C/C(=O)c1c[nH]c2ccc(-c3cncc(OCCN(C)C)n3)cc12 | – | –
11 | 6.43 | – | – | – | – | – | CN(C)/C=C/C(=O)c1c[nH]c2ccc(-c3cncc(NCCN(C)C)n3)cc12 | – | –
12 | – | – | – | – | 54 | – | Nc1nccc(-c2c[nH]c3ccccc23)n1 | – | –
13 | 7.59 | 6.23 | 7.52 | 4.75 | – | – | CCN(CC)CCOc1cncc(-c2ccc3[nH]cc(-c4ccnc(N)n4)c3c2)n1 | 5.48 | 4.84
14 | 7.35 | 6.13 | 7.29 | 4.68 | – | permeable | CCOc1cncc(-c2ccc3[nH]cc(-c4ccnc(N)n4)c3c2)n1 | 6.30 | 4.82
15 | 6.40 | – | – | – | – | – | CN(C)CCOc1cncc(-c2ccc3[nH]cc(C(=O)c4ccccc4)c3c2)n1 | – | –
16 | 7.69 | 6.42 | 7.66 | 4.73 | – | – | CN(C)CCOc1cncc(-c2ccc3[nH]cc(-c4ccnc(N)n4)c3c2)n1 | 5.54 | 4.87
17 | 6.57 | – | – | – | – | – | CN(C)CCNc1cncc(-c2ccc3[nH]cc(C(=O)C4CC4)c3c2)n1 | – | –
